The source made the active and inactive calls. No rule for the calls is given here.
What follows are compounds tested against Ubiquitin-conjugating enzyme E2 N (Homo sapiens) (UniProt P61088) (assay: UBE2N binders by NMR, biophysical, purified protein (AID 1552)). Details: NMR binding to purified UBE2N.
Sequence of Ubiquitin-conjugating enzyme E2 N (Homo sapiens) (P61088 whole entry, looked up): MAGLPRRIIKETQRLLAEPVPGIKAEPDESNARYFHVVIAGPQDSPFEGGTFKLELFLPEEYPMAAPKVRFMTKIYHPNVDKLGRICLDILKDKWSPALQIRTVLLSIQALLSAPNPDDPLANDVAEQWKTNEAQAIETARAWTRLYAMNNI

Row | Compound | Kd
1 | COc1ccccc1/C=C\C(=O)O | > 4 mM (inactive)
2 | CCC(=O)Nc1ccccc1NC(C)=O | > 4 mM (inactive)
3 | c1ccc(Cc2nn3c(-c4ccncc4)nnc3s2)cc1 | > 4 mM (inactive)
4 | CCOC(=O)c1c(C)nc2sccn12 | > 4 mM (inactive)
5 | CN1C(=O)CC(=O)N(C)c2ccccc21 | > 4 mM (inactive)
6 | O=C(O)CNC(=O)c1ccccc1Cl | > 4 mM (inactive)
7 | COc1ccc(-c2cc(=O)c3c(O)cc(O[C@@H]4O[C@H](CO[C@H]5O[C@H](C)[C@@H](O)[C@H](O)[C@@H]5O)[C@@H](O)[C@H](O)[C@H]4O)cc3o2)cc1O | > 4 mM (inactive)
8 | CC(CCC(=O)O)[C@H]1CCC2C3CC[C@@H]4CCCC[C@]4(C)C3CC[C@@]21C (stereo partly specified) | > 4 mM (inactive)
9 | NC(=O)c1cc(Cl)c(C(N)=O)cc1Cl | > 4 mM (inactive)
10 | Cc1cc(NC(=O)c2c(F)c(F)c(F)c(F)c2F)no1 | > 4 mM (inactive)
11 | O=C(Oc1ccc(-c2nnco2)cc1)N1CCCCC1 | > 4 mM (inactive)
12 | COc1cc2ccc(=O)oc2c2ccoc12 | > 4 mM (inactive)
13 | O=C(O)CCS(=O)(=O)c1ccccc1 | > 4 mM (inactive)
14 | CC(C)=CCc1c2c(c(O)c3c(=O)c(O)c(-c4ccccc4)oc13)C=CC(C)(C)O2 | > 4 mM (inactive)
15 | CCOC(=O)c1c(C)nc2cc(C)ccn12 | > 4 mM (inactive)
16 | CC(NC(=O)C1CCCCC1)C(=O)NC1=NCCS1 (stereo unspecified) | > 4 mM (inactive)
17 | S=C=NCc1ccccc1 | > 4 mM (inactive)
18 | CC(=O)O[C@@H]1CC2C(C)(C)[C@H](O)C=C[C@]2(C)C2CC[C@]3(C)C(=CC(=O)O[C@H]3c3ccoc3)[C@@]21C (stereo partly specified) | > 4 mM (inactive)
19 | Oc1ccc2nonc2c1 | > 4 mM (inactive)
20 | OC[C@H]1O[C@@H](Oc2ccc(O)cc2)[C@H](O)[C@@H](O)[C@@H]1O | > 4 mM (inactive)
21 | Brc1ccc(-c2nc(-c3ccncc3)no2)o1 | > 4 mM (inactive)
22 | CN(C)C(=S)Nc1ccc([N+](=O)[O-])cc1 | > 4 mM (inactive)
23 | CC(C)C(=O)NCC(c1ccco1)N1CCOCC1 (stereo unspecified) | > 4 mM (inactive)
24 | CC(=O)Nc1ccc(NC(C)=O)c(C(F)(F)F)c1 | > 4 mM (inactive)

Row | Compound | Kd
25 | NC(=O)CSc1nnc2ccc3ccccc3n12 | > 4 mM (inactive)
26 | CC(C)c1c(O)c(-c2cc3c(c(C(C)C)c2O)CCC2C(C)(C)CCC[C@]32C)cc2c1CCC1C(C)(C)CCC[C@]21C (stereo partly specified) | > 4 mM (inactive)
27 | Cc1cc(=O)n(CCc2ccccc2)c(O)c1C#N | > 4 mM (inactive)
28 | CC(C)c1c(O)ccc2c1CCC1C(C)(C)CCC[C@]21C (stereo partly specified) | > 4 mM (inactive)
29 | OCc1ccc2c(c1)OCO2 | > 4 mM (inactive)
30 | Cc1cc(C(=O)N2CCCCCC2)cs1 | > 4 mM (inactive)
31 | NC(=O)NC(=O)Nc1ccc(Cl)cc1 | > 4 mM (inactive)
32 | Cc1noc(C)c1C(=O)N1CCC(Cc2ccccc2)CC1 | > 4 mM (inactive)
33 | CC(O)c1nc2ccccc2[nH]1 (stereo unspecified) | > 4 mM (inactive)
34 | C/C=C(\C)c1nnc(NC(=O)c2ccco2)s1 | > 4 mM (inactive)
35 | Cn1ncc(CO)c1-c1ccccc1 | > 4 mM (inactive)
36 | CCOc1ccc(C(=O)c2ccc(O)c(O)c2O)cc1 | > 4 mM (inactive)
37 | Cn1nc(C(=O)Nc2cccnc2)c2ccccc2c1=O | > 4 mM (inactive)
38 | N[C@@H](CCC(=O)N[C@@H](CS)C(=O)NCC(=O)O)C(=O)O | > 4 mM (inactive)
39 | CNC(=O)c1ccccc1-c1ccccc1 | > 4 mM (inactive)
40 | CC(=O)Nc1ccc(-c2ccc3nncn3n2)cc1 | > 4 mM (inactive)
41 | O=C1c2ccc(F)cc2C(=O)N1CO | > 4 mM (inactive)
42 | O=C(CSc1ncccn1)NCc1ccco1 | > 4 mM (inactive)
43 | CCOC(=O)CNC(=O)CSc1nnc(C)c(=O)[nH]1 | > 4 mM (inactive)
44 | O=C(O)CN(CCCc1ccccc1)CC(=O)O | > 4 mM (inactive)
45 | COc1c2c(cc3occ(-c4ccc5c(c4)OCO5)c(=O)c13)OC(C)(C)C=C2 | > 4 mM (inactive)
46 | O=C(O)CC1C(=O)NCCN1Cc1ccccc1 (stereo unspecified) | > 4 mM (inactive)
47 | COC(=O)c1ccccc1NC(=O)c1cc[n+]([O-])cc1 | > 4 mM (inactive)
48 | COC(=O)c1ccc(Cl)c(NC(C)=O)c1 | > 4 mM (inactive)

Row | Compound | Kd
49 | O=C(NCc1ccco1)c1nc2ncccn2n1 | > 4 mM (inactive)
50 | CCOc1ccc(-c2c(=O)n(O)c3ccccc3[n+]2[O-])cc1 | > 4 mM (inactive)
51 | NCc1cc2ccccc2s1 | > 4 mM (inactive)
52 | Nc1cc(=O)[nH]c(SCC(=O)NCc2ccccc2)n1 | > 4 mM (inactive)
53 | NC(=O)CS(=O)(=O)c1ccc(Cl)cc1 | > 4 mM (inactive)
54 | O=c1[nH]c2c(c(=O)n1C1CCCCC1)CCC2 | > 4 mM (inactive)
55 | CC(=O)CC1CCCCN1 (stereo unspecified) | > 4 mM (inactive)
56 | CCOC(=O)c1cc(C)n(C)n1 | > 4 mM (inactive)
57 | CN1CCN(Cc2cccnc2)CC1 | > 4 mM (inactive)
58 | CCNCC(O)c1ccc([N+](=O)[O-])cc1 (stereo unspecified) | > 4 mM (inactive)
59 | CCOC(=O)C1=C(C)N2CCN=C2S1 | > 4 mM (inactive)
60 | Cc1ccc(-n2nnnc2SCC(N)=O)c(C)c1 | > 4 mM (inactive)
61 | Cc1cc(C(=O)Nc2sc3c(c2C#N)CCC3)no1 | > 4 mM (inactive)
62 | O=C1CSC(c2ccccc2)N1 (stereo unspecified) | > 4 mM (inactive)
63 | O=C(c1ccccc1)N1CCOCC1 | > 4 mM (inactive)
64 | CN1C(=O)C2C=CC1C1C(=O)N(c3ccccc3)C(=O)C21 (stereo unspecified) | > 4 mM (inactive)
65 | c1ccc(SCc2nc(-c3ccncc3)no2)cc1 | > 4 mM (inactive)
66 | C[C@@H](N)[C@@H](O)c1ccccc1 | > 4 mM (inactive)
67 | NC(=O)C(=O)NCc1ccc(Cl)cc1 | > 4 mM (inactive)
68 | Cc1cc(C)c(NC(=O)CN2CCC(O)CC2)c(C)c1 | > 4 mM (inactive)
69 | CC(=O)O[C@@H]1CC2C(C)(C)CCC(=O)[C@]2(C)C2CC[C@@]3(C)[C@H](c4ccoc4)OC(=O)C4OC43[C@@]21C (stereo partly specified) | > 4 mM (inactive)
70 | COC(=O)c1ccc(NC(=O)CC2NCCNC2=O)cc1 (stereo unspecified) | > 4 mM (inactive)
71 | O=[n+]1c2c(n([O-])c3ccccc31)CCCC2 | > 4 mM (inactive)
72 | Oc1cc2c(cc1O)C1c3ccc(O)c(O)c3OCC1(O)C2 (stereo unspecified) | > 4 mM (inactive)

Row | Compound | Kd
73 | Cc1cc(NC(=O)c2ccc3c(c2)OCCO3)no1 | > 4 mM (inactive)
74 | Nc1cccc(S(=O)(=O)N2CCCC2)c1 | > 4 mM (inactive)
75 | Cc1cc(=O)cc(C)n1-c1ccccc1N1CCOCC1 | > 4 mM (inactive)
76 | C[C@@H]1CC[C@@]23CCC4(C)[C@@](C=CC5[C@@]6(C)CCC(=O)C(C)(C)C6CC[C@]54C)(OC2=O)C3[C@H]1C (stereo partly specified) | > 4 mM (inactive)
77 | O=C1CC(=O)N(c2ccccc2F)C(=S)N1 | > 4 mM (inactive)
78 | Cn1cccc1C=C1C(=O)NC(=S)NC1=O | > 4 mM (inactive)
79 | CN1CCC(=NNC(=O)c2ccco2)CC1 | > 4 mM (inactive)
80 | O=C(O)CSCc1c(F)cccc1Cl | > 4 mM (inactive)
81 | O=C1CC(=O)N(c2ccccc2)c2ccccc21 | > 4 mM (inactive)
82 | CN1CCN(C2CCN(Cc3ccccc3)CC2)CC1 | > 4 mM (inactive)
83 | CCC(C)OC1CCS(=O)(=O)C1 (stereo unspecified) | > 4 mM (inactive)
84 | CC(CO)NC(=O)C1C=C2c3cccc4[nH]cc(c34)C[C@H]2N(C)C1 (stereo partly specified) | > 4 mM (inactive)
85 | COc1c(C(=O)N2CCCC2)ccc2ccccc12 | > 4 mM (inactive)
86 | COn1c(=O)c(-c2ccco2)[n+]([O-])c2ccccc21 | > 4 mM (inactive)
87 | O=[N+]([O-])c1cccc(-c2c[n+](=O)c3c(n2[O-])CCC3)c1 | > 4 mM (inactive)
88 | COc1cc(O)c(C(C)=O)c(OC)c1 | > 4 mM (inactive)
89 | O=C(O)/C=C/C(=O)Nc1ccccc1C(F)(F)F | > 4 mM (inactive)
90 | C=CCc1ccc(O)c(OC)c1 | > 4 mM (inactive)
91 | O=C(O)c1ccc2ncccc2c1 | > 4 mM (inactive)
92 | O=C(O)CCCN1CNC(=S)NC1 | > 4 mM (inactive)
93 | O=C(Nc1ccc2ccccc2c1)c1cnccn1 | > 4 mM (inactive)
94 | C/C(N)=C/C(=O)N1CCCCC1 | > 4 mM (inactive)
95 | c1coc(CNc2nc(-c3ccncc3)cs2)c1 | > 4 mM (inactive)
96 | O=C1Nc2ccccc2C1C1(O)C(=O)Nc2ccc(F)cc21 (stereo unspecified) | > 4 mM (inactive)

Row | Compound | Kd
97 | O=C(NCC1CCCCC1)c1ccco1 | > 4 mM (inactive)
98 | CC(=O)c1ccc[nH]1 | > 4 mM (inactive)
99 | CC(C)CCCC(C)C1CCC2C3C[C@@H](O)[C@@]4(O)C[C@@H](O)CC[C@]4(C)C3CC[C@]12C (stereo partly specified) | > 4 mM (inactive)
100 | O=C(O)C1COc2ccccc2C1 (stereo unspecified) | > 4 mM (inactive)
101 | Nc1c(S(=O)(=O)c2ccccc2)csc1C(=O)O | > 4 mM (inactive)
102 | C=CCCCCCCCCCCCC(O)CC(O)COC(C)=O (stereo unspecified) (tested in a mixture with another compound) | > 4 mM (inactive)
103 | CC(C)/C(O)=C1/C(=O)O[C@@H](c2ccoc2)[C@]2(C)C(O)[C@@H](O)[C@@]34OC5(C)OC67CC(C)(C(O)[C@]6(O)[C@@H](O)[C@]3(O5)C12)[C@H](CC(=O)O)[C@]74C (stereo partly specified) | > 4 mM (inactive)
104 | NC(=O)CSc1nc2[nH]ncc2c(=O)[nH]1 | > 4 mM (inactive)
105 | C/C1=C\CCC(=O)C2CC(C)(C)C2CC1 (stereo unspecified) | > 4 mM (inactive)
106 | O=C(/C=C/c1ccccc1)NC1CCS(=O)(=O)C1 (stereo unspecified) | > 4 mM (inactive)
107 | Cc1scc(C(=O)Nn2cnnc2)c1-c1ccccc1 | > 4 mM (inactive)
108 | COc1c2ccoc2cc2oc(C)cc(=O)c12 | > 4 mM (inactive)
109 | CC(=O)OC1CCC23CC1(C)CCC2C(C)(C)CC3OC(C)=O (stereo unspecified) | > 4 mM (inactive)
110 | CC(C)=NNC(=O)C(=O)Nc1ccc(F)cc1 | > 4 mM (inactive)
111 | Cc1cc(/C=N/O)nc(=O)[nH]1 | > 4 mM (inactive)
112 | CCn1nnc(NC(=O)c2ccccc2Br)n1 | > 4 mM (inactive)
113 | Cc1ccc(-c2c(C)n([O-])c(C)c(C)[n+]2=O)cc1 | > 4 mM (inactive)
114 | CC(C)c1ccc(NC(=O)C(N)=O)cc1 | > 4 mM (inactive)
115 | Nc1ccc(-c2cnco2)cc1 | > 4 mM (inactive)
116 | Cc1cc(C(=O)NCc2ccco2)cs1 | > 4 mM (inactive)

From PubChem BioAssay AID1552 (Sanford-Burnham Center for Chemical Genomics, 2009)
